ChEMBL document CHEMBL3272060, “Selective inhibition of the monosynaptic spinal reflex by a series of hydroxylated alkylaminoindans” (J Med Chem, 1977)

Tests used:
Felis catus [1] = test: Inhibition of electrical stimulation-induced monosynaptic spinal reflex response in unanesthetized decerebrated cat spinal cord segment at 2 mg/kg, iv relative to control; format: functional
Felis catus [2] = test: Inhibition of electrical stimulation-induced monosynaptic spinal reflex response in unanesthetized decerebrated cat spinal cord segment assessed as duration at 2 mg/kg, iv; format: functional
Felis catus [3] = test: Inhibition of electrical stimulation-induced polysynaptic spinal reflex response in unanesthetized decerebrated cat spinal cord segment at 5 mg/kg, iv relative to control; format: functional
Felis catus [4] = test: Toxicity in cat assessed as motor deficit at 10 mg/kg, po; format: organism-based; parameters: dose 10 mg/kg, route oral; conditions: in vivo
Felis catus [5] = test: Inhibition of electrical stimulation-induced monosynaptic spinal reflex response in unanesthetized decerebrated cat spinal cord segment assessed as duration at 5 mg/kg, iv; format: functional
Felis catus [6] = test: Inhibition of electrical stimulation-induced monosynaptic spinal reflex response in unanesthetized decerebrated cat spinal cord segment at 5 mg/kg, iv relative to control; format: functional
Felis catus [7] = test: Toxicity in cat assessed as motor deficit at 2 to 4 mg/kg, iv; format: organism-based; parameters: dose 2-4 mg/kg, route intravenous; conditions: in vivo
Felis catus [8] = test: Induction of electrical stimulation-induced monosynaptic spinal reflex response in unanesthetized decerebrated cat spinal cord segment assessed as duration at 5 mg/kg, iv; format: functional
Felis catus [9] = test: Inhibition of electrical stimulation-induced polysynaptic spinal reflex response in unanesthetized decerebrated cat spinal cord segment assessed as duration at 5 mg/kg, iv; format: functional
Felis catus [10] = test: Induction of electrical stimulation-induced monosynaptic spinal reflex response in unanesthetized decerebrated cat spinal cord segment at 5 mg/kg, iv relative to control; format: functional
Felis catus [11] = test: Inhibition of electrical stimulation-induced polysynaptic spinal reflex response in unanesthetized decerebrated cat spinal cord segment at 10 mg/kg, iv relative to control; format: functional
Felis catus [12] = test: Inhibition of electrical stimulation-induced polysynaptic spinal reflex response in unanesthetized decerebrated cat spinal cord segment at 2 mg/kg, iv relative to control; format: functional
Felis catus [13] = test: Inhibition of electrical stimulation-induced monosynaptic spinal reflex response in unanesthetized decerebrated cat spinal cord segment assessed as duration at 10 mg/kg, iv; format: functional
Felis catus [14] = test: Inhibition of electrical stimulation-induced monosynaptic spinal reflex response in unanesthetized decerebrated cat spinal cord segment at 10 mg/kg, iv relative to control; format: functional

| Structure (SMILES) | inhibition in vivo at 5 mg/kg (Felis catus [3]) [%] | Activity (Felis catus [4]) | Time (Felis catus [5]) [h] | inhibition in vivo at 5 mg/kg (Felis catus [6]) [%] | Activity (Felis catus [7]) | further results |
| --- | --- | --- | --- | --- | --- | --- |
| OC1CCC2=C(C1)CC(N1CCCCC1)C2 (mixture of isomers; 6) |  |  |  |  |  | inhibition (INH) (Felis catus [1]): 50%; Time (Felis catus [2]): 0.25 h |
| CC(=O)O[C@H]1CC2=C(CC(N3CCCCC3)C2)C[C@H]1OC(C)=O (stereo not given in full) | 0 | Non-toxic | >2 | 50 | Non-toxic |  |
| CC(=O)O[C@H]1CC2=C(C[C@@H]1OC(C)=O)CN(C)C2 | 0 |  |  | 0 |  |  |
| O[C@@H]1CC2CC(CN3CCCCC3)CC2C[C@@H]1O (stereo not given in full) | 0 |  |  | 0 |  |  |
| CN(C)CCCC1C2=C(CC=CC2)CCC1O (stereo not given) | 0 |  |  | 0 |  |  |
| CC(=O)O[C@@H]1CC2=C(CC(N3CCCCC3)C2)C[C@H]1OC(C)=O (relative stereo) | 0 |  |  | 0 |  |  |
| CC(=O)OC1CC=C(CCN2CCCCC2)CC1OC(C)=O (stereo not given) | 0 |  |  | 0 |  |  |
| CC(=O)O[C@H]1CC2=C(CC(N(C)C)C2)C[C@H]1OC(C)=O.Cc1ccc(S(=O)(=O)O)cc1 (stereo not given in full) | 0 | Non-toxic | 1 | 0 | Non-toxic |  |
| Cl.OC1CCC2=C(C1)CC(CN1CCCCC1)C2 (stereo not given) | 0 | Non-toxic | 0.25 | 0 | Non-toxic |  |
| OC1CCC2=C(C1)CN(C1CCCCC1)C2 (stereo not given) | 0 | Non-toxic | <0.25 | 0 | Non-toxic |  |
| CN1CC2=C(C[C@H](O)[C@@H](O)C2)C1 (relative stereo) | 0 | Non-toxic | <0.25 | 0 | Non-toxic |  |
| O[C@@H]1CC2=C(CC(CN3CCCCC3)C2)C[C@@H]1O (stereo not given in full) | 0 |  |  | 0 |  |  |
| Oc1ccc2c(c1)CC(N1CCCCC1)C2 (stereo not given) | 0 | Non-toxic | <0.25 | > 80 | Non-toxic |  |
| CCCCNC1CC2=C(CC(O)CC2)C1 (stereo not given) | 0 |  |  | 0 |  |  |
| CCCCN(Cc1ccccc1)C1CC2=C(CC(O)CC2)C1.Cl (stereo not given) | 0 | Non-toxic | 1 | 20 | Non-toxic |  |
| CC(=O)O[C@H]1CC2=C(CC(N(C)C)C2)C[C@@H]1OC(C)=O (relative stereo) | 0 |  |  | 0 |  |  |
| CC(=O)O[C@@H]1CC2=C(CC(CN3CCCCC3)C2)C[C@H]1OC(C)=O.Cc1ccc(S(=O)(=O)O)cc1 (relative stereo) | 0 | Non-toxic | <0.25 | 20 | Non-toxic |  |
| OC1CCC2=C(C1)CC(N1CCCCC1)C2 (stereo in doubt; 7) |  |  |  |  |  | Time (Felis catus [2]): >2 h |

| Structure (SMILES) | inhibition in vivo at 5 mg/kg (Felis catus [3]) [%] | Activity (Felis catus [4]) | Time (Felis catus [5]) [h] | inhibition in vivo at 5 mg/kg (Felis catus [6]) [%] | Activity (Felis catus [7]) | further results |
| --- | --- | --- | --- | --- | --- | --- |
| OC1CCC2=C(C1)CC(NC1CCCCC1)C2 (stereo not given) | 0 |  |  | 0 |  |  |
| O[C@]12CC=CC[C@]1(O)CC(N1CCCCC1)C2 (relative stereo) |  | Non-toxic |  |  | Non-toxic | Time (Felis catus [8]): <15 min; Time (Felis catus [9]): <15 min; inhibition in vivo at 5 mg/kg (Felis catus [10]): 0% |
| O[C@H]1CC2=C(CC(N3CCCCC3)C2)C[C@@H]1O (relative stereo) | 0 | Non-toxic | 0.25 | 50 | Non-toxic |  |
| COc1cc(C(=O)OC2CCC3=C(C2)CC(N2CCCCC2)C3)cc(OC)c1OC (stereo not given) | 0 |  |  | 0 |  |  |
| Br.OC1CC2=C(CC=CC2)C1CCCN1CCCCC1 (stereo not given) | 0 | Non-toxic | 1 | 20 | Non-toxic |  |
| O[C@@H]1CC2=C(CC(N3CCCCC3)C2)C[C@H]1Oc1ccccc1 (relative stereo) | 0 | Non-toxic | <0.25 | 20 | Non-toxic |  |
| CC(=O)O[C@H]1CC2=C(CCC(N3CCCCC3)C2)C[C@H]1OC(C)=O (relative stereo) | 0 |  |  | 0 |  |  |
| CN(C)CCCC1CC[C@@]2(O)CC=CC[C@]12O (stereo not given in full) | 0 | Non-toxic |  | 0 | Non-toxic |  |
| O[C@@H]1CC2=C(CC(N3CCCCC3)CC2)C[C@@H]1O (relative stereo) | 0 |  |  | 0 |  |  |
| O[C@@H]1CC2=C(CC(CN3CCCCC3)C2)C[C@H]1O (relative stereo) | 0 | Non-toxic | 0 | 20 | Non-toxic |  |
| CN1CC2=C(C[C@H](O)[C@H](O)C2)C1 | 0 | Non-toxic |  | 0 | Non-toxic |  |
| Cl.OC1CCC2=C(C1)CC(CCN1CCCCC1)C2 (stereo not given) | 0 | Non-toxic | 0.25 | 20 | Non-toxic |  |
| OC1CCC2=C(C1)CC(N1CCCCC1)C2 (mixture of isomers; 5) |  | Non-toxic |  |  | Non-toxic | inhibition in vivo at 10 mg/kg (Felis catus [11]): 0%; inhibition in vivo at 2 mg/kg (Felis catus [12]): 0%; Time (Felis catus [13]): >2 h; inhibition (INH) (Felis catus [1]): >80%; Time (Felis catus [2]): 1 h; inhibition in vivo at 10 mg/kg (Felis catus [14]): > 80% |
| O[C@@H]1CC2=C(CC(N3CCCCC3)C2)C[C@@H]1O (stereo not given in full) | 0 | Non-toxic | <0.25 | 0 | Non-toxic |  |
| OC1CCC2=C(C1)CC(N1CCCC1)C2 (stereo not given) | 0 | Non-toxic | 0.25 | 20 | Non-toxic | Time (Felis catus [9]): <15 min |
| CN(C)C1CC2=C(C1)C[C@H](O)[C@H](O)C2 (stereo not given in full) | 0 | Non-toxic |  |  | Non-toxic | inhibition in vivo at 5 mg/kg (Felis catus [10]): 0% |
| OC1CC=C(CCN2CCCCC2)CC1O (stereo not given) | 0 |  |  | 0 |  |  |
